Laboratory results as given in patent US9540428B2, “Extracellular matrix heparin-binding domains” (EPFL-TTO, priority 2012, dated 2017).

Columns and labels:
SMC = assay: Smooth muscle cell proliferation on modified TG-PEG gels with PDGF-BB; format: cell-based
Description: Method: Three different gels were fabricated, unmodified PEG, and PEG gels modified with TNC III1-5 or FN III9*-10,TNC III1-5 (5 μM). Unbound fragment was washed from the gels. Sequentially, gels were incubated for 1 hour at 37° C. with 100 μL DMEM without PDGF-BB or with PDGF-BB (1 ng per gel). For one set of gels, the media containing PDGF-BB was removed and gels were washed for 1 hour at RT. Cells were added to each gel and a proliferation assay with Alamar Blue was performed at 72 hours.

[1] = biological target: T1, binding of TNC III1-5 to the cytokines (Homo sapiens, UniProt P24821); assay: Competition ELISA: TNC III1-5 binding to cytokines with gradient of full length tenascin or heparin; conditions: high concentrations of competitor; 10 nM TNC III1-5
T1 construct: factor Xa cleavage site (N); made in house; host or cells: HEK-293E
T1 sequence (P24821 622-1074): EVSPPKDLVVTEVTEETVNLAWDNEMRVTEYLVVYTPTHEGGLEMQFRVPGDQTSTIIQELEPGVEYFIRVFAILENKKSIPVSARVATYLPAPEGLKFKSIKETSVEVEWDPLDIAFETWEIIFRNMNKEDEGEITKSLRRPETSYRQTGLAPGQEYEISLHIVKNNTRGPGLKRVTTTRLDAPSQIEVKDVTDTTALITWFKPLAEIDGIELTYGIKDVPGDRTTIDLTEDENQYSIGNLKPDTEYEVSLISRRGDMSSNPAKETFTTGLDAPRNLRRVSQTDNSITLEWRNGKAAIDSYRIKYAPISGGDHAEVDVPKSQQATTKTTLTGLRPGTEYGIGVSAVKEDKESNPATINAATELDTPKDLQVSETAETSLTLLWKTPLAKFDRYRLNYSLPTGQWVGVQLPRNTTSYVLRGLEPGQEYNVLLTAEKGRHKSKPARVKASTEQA
Description: ELISA plates were coated with cytokines or BSA and further incubated with TNC III1-5 in the presence of a gradient of full length tenascin or heparin to verify the specificity of the binding. […] TNC bound to the cytokines, making them unavailable for TNC III1-5, while heparin bound to TNC III1-5, blocking it to bind to the cytokines. Method: 50 nM of cytokine was coated for (1 hr, 37° C.). After blocking with 2% BSA (1 hr, RT). 10 nM TNC III1-5 was applied in PBST (0.05% tween, 0.1% bovine serum albumin (BSA)) (1 hr, RT) in the presence of a gradient of full length tenascin (0, 0.2, 0.6, 1.9, 5.6, 17, 50 nM) or heparin (0.01, 0.64, 3.2, 16, 80, 400, 2000, 10000). TNC III1-5 was detected with HRP-anti-HIS in PBST (1 hr, RT) and developed with TMB. Background values were obtained by applying each tenascin (0, 0.2, 0.6, 1.9, 5.6, 17, 50 nM) or heparin (0.01, 0.64, 3.2, 16, 80, 400, 2000, 10000) concentration to the cytokine without TNC III1-5, and were subtracted as normalization.
To verify specific binding of tenascin to the cytokines, tenascin (0, 0.1, 0.2, 0.6, 1.9, 5.6, 17, 50 nM) was incubated with PDGF-BB (50 nM) and BSA and detected with mouse anti-tenascin, HRP-anti-mouse, and TMB.

HUVEC cells = assay: HUVEC proliferation with cytokines with or without fibrinogen or Fg β15-66; format: cell-based, human; conditions: 72 hours; ≧100-fold molar excess; VEGF-A165, PlGF-2, FGF-2
Description: To verify that cytokines bound to Fg β15-66 are still bioactive, the proliferation of HUVEC cells was tested for different cytokines with and without the presence of Fg β15-66. Method: HUVEC cells were stimulated with various cytokines: VEGF-A165, PlGF-2, and FGF-2 with or without fibrinogen or Fg β15-66 in excess (≧100-fold molar excess).

[2] = biological target: T2, binding of TNC III1-5 to cytokines (Homo sapiens, UniProt P24821); assay: ELISA binding of TNC III1-5 to cytokines in presence of 4 μM heparin; conditions: heparin 4 μM; 100 nM TNC III1-5
T2 construct: factor Xa cleavage site (N); made in house; host or cells: HEK-293E
Description: ELISA plates were coated with cytokines or BSA and further incubated with TNC III1-5 to analyze binding of TNC III1-5 to a wide variety of cytokines. […] Results are depicted in FIG. 3. Method: 50 nM of cytokine was coated for (1 hr, 37° C.). After blocking with 2% BSA (1 hr, RT). 100 nM TNC III1-5 was applied in PBST (0.05% tween, 0.1% bovine serum albumin (BSA)) (1 hr, RT). TNC III1-5 was detected with horseradish peroxidase (HRP)-anti-HIS in PBST (1 hr, RT) and developed with 3,3′,5,5′-tetramethylbenzidine (TMB), a soluble colorimetric HRP […]. Addition of sulfuric acid stop solution changes the color to yellow, enabling accurate measurement of the intensity at 450 nm using a spectrophotometer or plate reader. […] Heparin (4 μM) was added to TNC III1-5 to test the effect of blocking the heparin binding site of TNC III1-5, which has been defined as domain TNC III5 (Weber, Zimmermann, et al., 1995).

skin wounds = conditions: applied topically for five consecutive days; 20 μg/wound VEGF-A165 or 10 μg/wound PDGF-BB; cited from earlier work
PDGF-BB = PDGF-BB (Homo sapiens, UniProt P01127); assay: ELISA of individual TNC domains binding PDGF-BB
Description: An ELISA was performed to test the affinity of different domains present in TNC1-5 to PDGF-BB as an example cytokine that has shown to bind TNC III1-5. […] Method: ELISA plates were coated with individual TNC domains fused to GST, as well as GST and BSA. Wells were blocked with BSA and then incubated with 2 nM PDGF-BB. Binding of PDGF-BB was detected using an anti-PDGF-BB antibody and then a secondary horseradish peroxidase conjugated antibody.

FN III9*-10-TNC III1-5: fusion protein of fibronectin integrin binding domain FN III9*-10 and TNC III1-5 with TG substrate, SEQ ID NO:5
SMC proliferation on top of a PEG gel, fusion vs TNC III1-5 (SMC; addition of FN III9*-10 to TNC III1-5): significantly enhanced SMC proliferation | SMC proliferation on TG-PEG gels (2%) (SMC; in the presence of PDGF-BB, 5 μM fragment, 72 hours): enhanced SMC proliferation

TNC: full length tenascin C, extracellular matrix glycoprotein, used as competitor
competition of binding of TNC III1-5 to the cytokines [1]: competed away binding

fibrinogen [reference compound]
synergistic effect on HUVEC proliferation, cytokines plus protein vs cytokines alone (HUVEC cells): no synergistic effect

heparin
competition of binding of TNC III1-5 to the cytokines [1]: competed away binding | effect on binding of TNC III1-5 to cytokines [2]: impaired binding

B1: VEGF-A165: vascular endothelial growth factor, cytokine applied topically (protein)
chain: APMAEGGGQNHHEVVKFMDVYQRSYCHPIETLVDIFQEYPDEIEYIFKPSCVPLMRCGGCCNDEGLECVPTEESNITMQIMRIKPHQGQHIGEMSFLQHNKCECRPKKDRARQENPCGPCSERRKHLFVQDPQTCKCSCKNTDSRCKARQLELNERTCRCDKPRR
efficacy in the db/db mouse (skin wounds): efficient

B2: PDGF-BB: platelet derived growth factor BB (REGRANEx®) applied topically (protein)
chain: SLGSLTIAEPAMIAECKTRTEVFEISRRLIDRTNANFLVWPPCVEVQRCSGCCNNRNVQCRPTQVQLRPVQVRKIEIVRKKPIFKKATVTLEDHLACKCETVAAARPVT
efficacy in the db/db mouse (skin wounds): efficient

B3: TNC III4-5: fibronectin type III domains 4-5 of tenascin C (protein)
chain: APRNLRRVSQTDNSITLEWRNGKAAIDSYRIKYAPISGGDHAEVDVPKSQQATTKTTLTGLRPGTEYGIGVSAVKEDKESNPATINAATELDTPKDLQVSETAETSLTLLWKTPLAKFDRYRLNYSLPTGQWVGVQLPRNTTSYVLRGLEPGQEYNVLLTAEKGRHKSKPARVKASTEQA
cytokine-binding (PDGF-BB; test not specified): demonstrated cytokine-binding

B4: TNC III5: fifth fibronectin type III domain of tenascin C, heparin-binding; tested as GST fusion (protein)
chain: LQVSETAETSLTLLWKTPLAKFDRYRLNYSLPTGQWVGVQLPRNTTSYVLRGLEPGQEYNVLLTAEKGRHKSKPARVKASTEQA
modifications: left off: a dimerising Fc or GST
notes: tested as GST fusion
domain responsible for binding of PDGF-BB (PDGF-BB; GST-fused TNC domains coated, 2 nM PDGF-BB): responsible for cytokine binding
